Values joined by “and” are separate entries in the source; they are usually repeats but may differ in a detail not shown here. Equal entries are not always repeated.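 Briefly, cells in 96-well plates were exposed to five compound concentrations for 48 h, and endpoints were estimated by linear interpolation. GI50 = concentration required for 50% inhibition of growth. TGI: concentration producing complete growth inhibition.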
Assays:
Experiment in all cases: NCI tumour cell line growth inhibition, 48 h
[1] = tested on: HCC-2998 colon
[2] = tested on: HCT-15 colon
[3] = tested on: KM12 colon
[4] = tested on: LOX IMVI melanoma
[5] = tested on: RPMI-8226 leukemia
[6] = tested on: RXF 393 renal
[7] = tested on: SK-MEL-2 melanoma
[8] = tested on: SK-MEL-5 melanoma
[9] = tested on: SW-620 colon
[10] = tested on: NCI/ADR-RES ovarian
[11] = tested on: UO-31 renal
[12] = tested on: MDA-MB-435
[13] = tested on: MDA-N
[14] = tested on: PC-3 prostate
[15] = tested on: 786-0 renal

| SMILES | TGI [1] | TGI [2] | TGI [3] | TGI [4] | TGI [5] | TGI [6] | TGI [7] | TGI [8] | TGI [9] | TGI [10] | TGI [11] | TGI [12] | TGI [13] | TGI [14] | TGI [15] | GI50 [3] | GI50 [7] | GI50 [2] | GI50 [8] | GI50 [9] |
| --- | --- | --- | --- | --- | --- | --- | --- | --- | --- | --- | --- | --- | --- | --- | --- | --- | --- | --- | --- | --- |
| NC(=O)CCC(N=C(N)c1csc(C2OC(CO)C(O)C2O)n1)C(=O)O (centres undefined) | > 100 µM | > 100 µM | > 100 µM | > 100 µM | > 100 µM | > 100 µM | > 100 µM | > 100 µM | > 100 µM | – | – | – | – | – | – | – | – | – | – | – |
| C/C=C/C1=CC(=O)C(O)C1O (centres undefined) | 82.5 µM | 97.2 µM | 39 µM | 83 µM | 102 µM | 44 µM | 133 µM | 79.8 µM | 99.3 µM | 66.1 µM | 106 µM | – | – | – | – | – | – | – | – | – |
| CC(=O)OC/C=C\Cn1nc(Br)c(=O)[nH]c1=O | 31.7 µM | 27.2 µM | 30.1 µM | 20.1 µM | 72.7 µM | 27.1 µM | 30.6 µM | 30.9 µM | 32.3 µM | 56 µM | 31.2 µM | 29.4 µM | 32 µM | 26 µM | – | – | – | – | – | – |
| CC(=O)NC(CCC(=O)C=[N+]=N)C(=O)O (centres undefined) | > 100 µM | > 100 µM | > 100 µM | > 100 µM | > 100 µM | > 100 µM | > 100 µM | > 100 µM | > 100 µM | > 100 µM | > 100 µM | > 100 µM | > 100 µM | > 100 µM | > 100 µM | – | – | – | – | – |
| CNC(=O)SCC(N)C(=O)O (centres undefined) | > 100 µM | > 100 µM | > 100 µM | > 89.3 µM | > 100 µM | > 100 µM | > 100 µM | > 100 µM | > 100 µM | > 100 µM | > 100 µM | – | – | – | – | – | – | – | – | – |
| CC(=O)O[C@H]1/C(=C/c2ccncc2)C[C@H]2[C@@H]3CC=C4C[C@@H](N5CCCC5)CC[C@]4(C)[C@H]3CC[C@]12C | 26 µM | 24.7 µM | 26.2 µM | 6.82 µM | 23.4 µM | 20.4 µM | 32.1 µM | 21.1 µM | 31.9 µM | 25.1 µM | 18.1 µM | 25.8 µM | – | 26.6 µM | 10.3 µM | – | – | – | – | – |
| COC(=O)c1c(O)ccc2c1c1c(n2Cc2ccc(Cl)cc2Cl)C(=O)c2ccccc2C1=O | 9.33 µM | 18.5 µM | 15.9 µM | 33.3 µM | 13.5 µM | 19.7 µM | 28.8 µM | 27.1 µM | 32.4 µM | 24.1 µM | 22.8 µM | 20.6 µM | 29.5 µM | 21.3 µM | 22.9 µM | – | – | – | – | – |
| COc1ccc(/C(O)=C/c2nc3cccnc3nc2/C=C(\O)c2ccc(OC)cc2)cc1 | > 100 µM | > 100 µM | > 100 µM | 44.5 µM | > 100 µM | – | 91.7 µM | 78.3 µM | – | 53 µM | 71.2 µM | 76.4 µM | > 100 µM | > 100 µM | 10.4 µM | – | – | – | – | – |
| O=C(N/N=C/c1cc(Cl)cc(Cl)c1[O-])c1ccccc1O.O=C(N/N=C/c1cc(Cl)cc(Cl)c1[O-])c1ccccc1O.[Zn+2] | 13.2 µM | 15.6 µM | 17.9 µM | 14.6 µM | – | 11.6 µM | 11.5 µM | 2.94 µM | 20.9 µM | – | 10.6 µM | – | – | – | – | 0.956 µM | 0.591 µM | – | – | – |
| C[C@]12CC/C(=N\O)C=C1CC[C@@H]1[C@@H]2CC[C@]2(C)C(=N/O)/C(=C/c3ccc([N+](=O)[O-])cc3)C[C@@H]12 | – | > 100 µM | 23.6 µM | 19.3 µM | 7.61 µM | > 100 µM | 17.1 µM | 16.2 µM | > 100 µM | > 100 µM | 20.4 µM | 19 µM | 85 µM | 34.5 µM | 27.7 µM | – | – | – | – | – |
| CCOC(=O)c1c(Cl)nc2ccccc2c1N=[N+]=[N-] | > 100 µM | 34.6 µM | 31.5 µM | 39.3 µM | > 100 µM | > 100 µM | 71.5 µM | > 100 µM | 35.1 µM | – | 36.5 µM | 47.1 µM | 44.2 µM | 68.5 µM | – | – | – | – | – | – |
| CCC(=O)c1ccc2[nH]c3c(C)c4c(=O)cc(C)[nH]c4c(C)c3c2c1 | > 100 µM | > 100 µM | > 100 µM | > 100 µM | – | > 100 µM | > 100 µM | > 100 µM | > 100 µM | > 100 µM | > 100 µM | > 100 µM | > 100 µM | > 100 µM | > 100 µM | – | – | – | – | – |
| Cc1oc2c(Cl)cc(O)c(Cl)c2c2cccc1-2 | > 100 µM | 75.4 µM | 47.4 µM | 36.1 µM | 36.6 µM | – | > 100 µM | 52.1 µM | > 100 µM | 79.9 µM | > 100 µM | 70 µM | 60.3 µM | > 100 µM | 76 µM | – | – | – | – | – |
| COc1cc(OC)c(/C=C\c2cc(/C=C/c3c(OC)cc(OC)cc3OC)c3ccccc3[n+]2C)c(OC)c1 | 14.5 µM | > 47.4 µM | 10.4 µM | 18.3 µM | – | 10.9 µM | – | 2 µM | > 36.3 µM | > 100 µM | > 55.4 µM | 6.43 µM | 8.19 µM | 11.5 µM | 7.56 µM | – | – | – | – | – |
| CC(=O)NC(c1nc2cc(C)c(C)cc2[nH]1)c1nc2cc(C)c(C)cc2[nH]1 | 34.6 µM | 60 µM | 34.2 µM | 59.1 µM | 46.4 µM | 84.8 µM | > 100 µM | 32 µM | > 100 µM | 89.2 µM | 53.2 µM | 42.3 µM | 48.6 µM | 94.7 µM | – | – | – | – | – | – |
| Cc1ccc(-c2cc(C(F)(F)F)nn2-c2ccc(S(N)(=O)=O)cc2)cc1 | 33.1 µM | > 56.6 µM | 35.9 µM | 31.7 µM | 29.9 µM | 36 µM | 43.5 µM | 32.6 µM | > 56.3 µM | 43.1 µM | > 53.2 µM | > 56 µM | 30.9 µM | 34.1 µM | > 89.2 µM | – | – | – | – | – |
| C1=C(c2ccccc2)Nc2nnnn2C1c1ccccc1 (centres undefined) | – | 37.7 µM | 28.6 µM | 38.3 µM | – | 51.1 µM | > 100 µM | > 100 µM | 55.9 µM | > 100 µM | > 100 µM | 47 µM | > 100 µM | > 100 µM | > 100 µM | – | – | – | – | – |
| S=C1CC(c2ccccc2)Sc2ccccc2N1 (centres undefined) | – | > 100 µM | > 100 µM | > 100 µM | > 100 µM | 75.8 µM | – | > 100 µM | – | > 100 µM | > 100 µM | > 100 µM | > 100 µM | > 100 µM | – | – | – | – | – | – |
| CC1CCC2(C(=O)O)CCC3(C)C(=CCC4C5(C)CCC(O)C(C)(C)C5CCC43C)C2C1C (centres undefined) | 21.8 µM and 23 µM | 15.4 µM and 26.6 µM | 21 µM and 20.9 µM | 17.2 µM and > 100 µM | 24.3 µM and 31.5 µM | 16.4 µM and 38.3 µM | 19 µM and 30.2 µM | 50.8 µM and 23.8 µM | 16.9 µM and > 100 µM | 23.7 µM and 40.7 µM | 16.6 µM and 14.5 µM | 75.1 µM | 28.2 µM | 29.3 µM | > 100 µM | – | – | 5.53 µM and 13.3 µM | 26.4 µM and 11.3 µM | 5.07 µM and 46.9 µM |
| COc1cccc(/C=N/[N-]C(N)=O)c1[O-].[Ni+2].[OH3+].c1ccc(-c2ccccn2)nc1 | > 100 µM | > 100 µM | > 100 µM | > 100 µM | > 100 µM | > 100 µM | > 100 µM | > 100 µM | > 100 µM | – | > 100 µM | – | – | – | – | – | – | – | – | – |
| CC1CC[C@@]2(OC1)OC1CC3C4CCC5C[C@@H](OC6OC(CO)C(OC7OC(CO)C(O)C(OC8OC(CO)C(O)C(OC9OC(CO)C(O)C(O)C9O)C8O)C7OC7OC(CO)C(O)C(O)C7O)C(O)C6O)[C@H](O)C[C@]5(C)C4CC[C@]3(C)C1[C@@H]2C (some centres undefined) | > 80.5 µM | > 80.5 µM | > 80.5 µM | > 80.5 µM | – | > 80.5 µM | – | > 80.5 µM | > 80.5 µM | > 80.5 µM | – | > 80.5 µM | > 80.5 µM | > 80.5 µM | > 80.5 µM | – | – | – | – | – |

Reference: PubChem BioAssay (NCI)
